Results reported in patent US20110230367A1, “Amphiphilic Peptides Promoting Production of Target miRNA and Method of Regulating Production of Target miRNA” (SNU R&DB FOUNDATION, priority 2009, published 2011).
Like-named read-outs stand apart in the source and are kept apart here.

Columns and labels:
pre-let7a-1 = assay: Dissociation constant by competitive fluorescence anisotropy with rhodamine-rev peptide probe; assay type: binding; details: for Discrimination ratio pre-let7a-1 (in parenthesis): Kd against other RNA (HBV, IRES, other miRNAs)/Kd against target miRNA
Protocol: (§1) The binding affinity between the peptide synthesized in <Example 1> and pre-miRNA from <Example 2> were measured by fluorescence anisotropy using competitive binding method. A rev peptide with rhodamine attached at the N-terminal was used as a fluorescent probe and LS-55 luminescence spectrometer from Perkin-Elmer was use for analysis. A constant temperature of 20° C. was maintained by a water bath. The fluorescent intensity was measured by of 200 nM of rhodamine-rev peptide was measured with an excitation wavelength at 550 nm (band path 10 nm) and detection at 580 nm (band path 10 nm). The integration time […]. Each experimental value is the mean value of 5 measurements. A 20 mM of HEPES{4-(2-hydroxyethyl)-1-piperazineethanesulfonic acid} buffer (pH 7.5) containing 140 mM NaCl, 5 mM KCl and 1 mM MgCl2 was used for measuring the dissociation constant. The dissociation constant was determined according to the Mathematical Formula 1 and using Kaledia graph.
(§2) A and Ao are the fluorescence anistropy in the presence or absence of RNA, whereas ΔA is the difference between these two values. [RNA]0 and [Rh-rev]0 are initial concentrations of RNA and rev peptide binding with rhodamine.
(§3) According the method described in <Example 3>, the dissociation constant between second generation peptide and 2 pre-miRNAs synthesized from <Example 2> was determined using fluorescent polarization detection method and fluorescent probe molecule.

pre-miR16-1 = assay: as above; assay type: binding; details: for Discrimination ratio pre-miR16-1 (in parenthesis): Kd against other RNA/Kd against target miRNA
Protocol: as §1, §2, §3

HBV (hairpin RNA) = assay: as above; assay type: binding; details: Table 6
Protocol: as §1, §2, §3

IRES (hairpin RNA) = assay: as above; assay type: binding; details: Table 6
Protocol: as §1, §2, §3

pre-miR24-1 = assay: as above; assay type: binding; details: for Kd / Discrimination ratio pre-miR24-1 (in parenthesis): Table 6; for Discrimination ratio pre-miR24-1 (in parenthesis): Kd against other RNA/Kd against target miRNA
Protocol: as §1, §2, §3

[1] = tested on: recombinant human Dicer processing pre-let7a-1; assay: Dicer activity assay in the presence of peptide, substrate pre-let7a-1; assay type: biochemical; details: 400 nM peptide, pre-let7a-1 substrate, FIG. 2
Protocol: Two types of pre-miRNA (pre-let7a-1, pre-miR16-1) used as the substrate for the Dicer enzyme activity assay was ordered and manufactured by ST Pharm Co., Ltd (FIG. 1). For Dicer activity assay, the 5′ end of the synthesized pre-miRNA was labeled with ^32p isotope. Two pmole of each pre-miRNA was isotope labeled with […] of [g-^32P]ATP (New England Biolabs) using 10 units of T4 polynucleotide kinase (New England Biolabs). Total volume of 10 μl was isotope labeled for 1 hr at 37° C. The isotope labeled RNA obtained after the reaction was purified using G-25 Sephadex column (Sigma). The purified substrate was used for measuring Dicer enzyme activity. Total reaction mixture of 30 μl containing 1 nM of isotope labeled pre-miRNA and 0.001 u/μl of recombinant human Dicer (Genlantis, CA, USA) were incubated at 37° C. in 24 mM 4-(2-hydroxyethyl)-1-piperazineethanesulfonic acid, HEPES) buffer system containing 200 mM NaCl, 0.04 mM EDTA, 1 mM ATP and 2.5 mM MgCl2(pH 8.0). After reacting for 0, 10, 30, […], 3 μl of each reaction mixture was mixed with 5 μl of RNA gel loading buffer {95% formamide, 10 mM ethylenediaminetetraacetic acid (EDTA), 0.05% FF (xylene cyanol FF)} and incubated for 5 min at 65° C. The amount of the reaction product was determined by gel running in 15% polyacrylamide gel containing 7M urea, and then the initial reaction velocity (V0) from each reaction was compared. The initial reaction velocity (V0) of the enzyme is the reaction velocity of the initial linear time (until 30 min). Each initial velocity was normalized with the initial velocity from each substrate condition without peptide treatment. The initial reaction velocity of Dicer for pre-let7a-1 and pre-miR16-1 without peptide treatment were […] and 0.018 fmole/min, respectively. Each of the initial reaction velocity is a mean data of more than 3 measurements, and the standard deviation is shown as error bars.

[2] = tested on: recombinant human Dicer processing pre-miR16-1; assay: Dicer activity assay in the presence of peptide, substrate pre-miR16-1; assay type: biochemical; details: 400 nM peptide, pre-miR16-1 substrate, FIG. 2
Protocol: Two types of pre-miRNA (pre-let7a-1, pre-miR16-1) used as the substrate for the Dicer enzyme activity assay was ordered and manufactured by ST Pharm Co., Ltd (FIG. 1). For Dicer activity assay, the 5′ end of the synthesized pre-miRNA was labeled with ^32p isotope. Two pmole of each pre-miRNA was isotope labeled with […] of [g-^32P]ATP (New England Biolabs) using 10 units of T4 polynucleotide kinase (New England Biolabs). Total volume of 10 μl was isotope labeled for 1 hr at 37° C. The isotope labeled RNA obtained after the reaction was purified using G-25 Sephadex column (Sigma). The purified substrate was used for measuring Dicer enzyme activity. Total reaction mixture of 30 μl containing 1 nM of isotope labeled pre-miRNA and 0.001 u/μl of recombinant human Dicer (Genlantis, CA, USA) were incubated at 37° C. in 24 mM 4-(2-hydroxyethyl)-1-piperazineethanesulfonic acid, HEPES) buffer system containing 200 mM NaCl, 0.04 mM EDTA, 1 mM ATP and 2.5 mM MgCl2(pH 8.0). After reacting for 0, 10, 30, 60 or 120 min in the presence of 400 nM concentration of 2b or 2c peptide, 3 μl of each reaction mixture was mixed with 5 μl of RNA gel loading buffer {95% formamide, 10 mM ethylenediaminetetraacetic acid (EDTA), 0.05% FF (xylene cyanol FF)} and incubated for 5 min at 65° C. The amount of the reaction product was determined by gel running in 15% polyacrylamide gel containing 7M urea, and then the initial reaction velocity (V0) from each reaction was compared. The initial reaction velocity (V0) of the enzyme is the reaction velocity of the initial linear time (until 30 min). Each initial velocity was normalized with the initial velocity from each substrate condition without peptide treatment. The initial reaction velocity of Dicer for pre-let7a-1 and pre-miR16-1 without peptide treatment were […] and 0.018 fmole/min, respectively. Each of the initial reaction velocity is a mean data of more than 3 measurements, and the standard deviation is shown as error bars.

[3] = Table 3, first generation peptides, 20° C., HEPES pH 7.5, read-out: Kd value with pre-let7a-1
[4] = Table 5, second generation peptides, read-out: Kd value against pre-let7a-1
[5] = Table 3, first generation peptides, 20° C., HEPES pH 7.5, read-out: Kd value with pre-miR16-1
[6] = Table 5, second generation peptides, read-out: Kd value against pre-miR16-1
[7] = Table 6, read-out: Kd pre-let7a-1
[8] = Table 6, read-out: Kd pre-miR16-1

Sequence | Kd (pre-let7a-1; [3]) [nM] | Kd (pre-let7a-1; [4]) [nM] | Kd (pre-miR16-1; [5]) [nM] | Kd (pre-miR16-1; [6]) [nM] | Kd (HBV (hairpin RNA)) [nM] | Kd (IRES (hairpin RNA)) [nM] | Discrimination ratio pre-let7a-1 (in parenthesis) (pre-let7a-1; Table 6) | Kd (pre-let7a-1; [7]) [nM] | Discrimination ratio pre-miR16-1 (in parenthesis) (pre-miR16-1; Table 6) | Kd (pre-miR16-1; [8]) [nM] | Kd (pre-miR24-1) [nM] | Discrimination ratio pre-miR24-1 (in parenthesis) (pre-miR24-1) | also measured
LKKLLKLLKKLLKLAG [Peptide 1, Ac-LKKLLKLLKKLLKLAG] | 17 | 17 | 12 | 12 | – | – | – | – | – | – | – | – | –
LKKLLKLLKKLLKWAG [Peptide 1h, Ac-LKKLLKLLKKLLKWAG] | 0.11 | – | 0.4 | – | – | – | – | – | – | – | – | – | binding with pre-let7a-1 (pre-let7a-1): significant increase in binding affinity; increase in binding affinity compared to the peptide with no tryptophan substitution (peptide 1) (pre-let7a-1; pre-miRNA not named, values fit pre-let7a-1): 150 times; binding with pre-miR16-1 (pre-miR16-1): significant increase in binding affinity
LKKLLKLLKKLWKLAG [Peptide 1g, Ac-LKKLLKLLKKLWKLAG] | 0.25 | – | 0.56 | – | – | – | – | – | – | – | – | – | –
LKKLLKLLKKLWKWAG [Peptide 2j, Ac-LKKLLKLLKKLWKWAG, 21] | – | 0.37 | – | 0.44 | 0.35 | 0.85 | 1.0 | 0.37 | 1.4 | 0.44 | 0.27 | 1.9 | –
LKKLLKLLKKWLKLAG [Peptide 1f, Ac-LKKLLKLLKKWLKLAG] | 0.32 | – | 0.48 | – | – | – | – | – | – | – | – | – | –
LKKLLKLLKKWLKWAG [Peptide 2i, Ac-LKKLLKLLKKWLKWAG, 20] | – | 0.31 | – | 0.47 | 0.82 | 1.2 | 4.4 | 0.31 | 1.6 | 0.47 | 0.53 | 1.2 | –
LKKLLKLLKKWWKLAG [Peptide 2h, Ac-LKKLLKLLKKWWKLAG, 19] | – | 1.5 | – | 2.6 | 5.7 | 1.7 | 1.8 | 1.5 | 1.0 | 2.6 | 1.5 | 1.9 | –
LKKLLKLWKKLLKLAG [Peptide 1e, Ac-LKKLLKLWKKLLKLAG] | 20 | – | 27 | – | – | – | – | – | – | – | – | – | initial reaction velocity (V0) of Dicer, normalized to no peptide [1]: did not increase; initial reaction velocity (V0) of Dicer, normalized to no peptide [2]: did not increase
LKKLLKWLKKLLKLAG [Peptide 1d, Ac-LKKLLKWLKKLLKLAG] | 0.64 | – | 1.8 | – | – | – | – | – | – | – | – | – | –
LKKLLKWLKKLLKWAG [Peptide 2g, Ac-LKKLLKWLKKLLKWAG, 18] | – | 0.96 | – | 1.1 | 1 | 1.3 | 0.85 | 0.96 | 0.99 | 1.1 | 0.47 | 2.3 | discrimination ratio for pre-miR24-1 (pre-miR24-1): 2.3
LKKLWKLLKKLLKLAG [Peptide 1c, Ac-LKKLWKLLKKLLKLAG] | 0.41 | – | 0.56 | – | – | – | – | – | – | – | – | – | –
LKKLWKLLKKLLKWAG [Peptide 2f, Ac-LKKLWKLLKKLLKWAG, 17] | – | 0.9 | – | 2.1 | 0.38 | 3.8 | 9.3 | 0.96 | 1.2 | 2.1 | 2.2 | 0.66 | –
LKKWLKLLKKLLKLAG [Peptide 1b, Ac-LKKWLKLLKKLLKLAG] | 0.68 | – | 1.2 | – | – | – | – | – | – | – | – | – | –
WKKLLKLLKKLLKLAG [Peptide 1a, Ac-WKKLLKLLKKLLKLAG] | 0.17 | – | 0.42 | – | – | – | – | – | – | – | – | – | binding with pre-let7a-1 (pre-let7a-1): significant increase in binding affinity; binding with pre-miR16-1 (pre-miR16-1): significant increase in binding affinity
WKKLLKLLKKLLKWAG [Peptide 2e, Ac-WKKLLKLLKKLLKWAG, 16] | – | 0.22 | – | 0.28 | 0.34 | 0.76 | 1.7 | 0.9 | 2.3 | 0.28 | 0.84 | 0.50 | discrimination ratio for pre-miR16-1 (pre-miR16-1; against other RNAs): 2.3
WKKLLKLLKKLWKLAG [Peptide 2d, Ac-WKKLLKLLKKLWKLAG, 15] | – | 0.25 | – | 0.64 | 0.79 | 0.77 | 1.2 | 0.22 | 1.2 | 0.64 | 0.67 | 1.0 | –
WKKLWKLLKKLLKLAG [Peptide 2a, Ac-WKKLWKLLKKLLKLAG, 12] | – | 0.23 | – | 0.32 | 0.77 | 0.9 | 2.8 | 0.23 | 2.6 | 0.32 | 0.82 | 0.66 | –
